{
  "source": "patent US10793580B2",
  "about": "“Substituted pyrazoloazepin-8-ones and their use as phosphodiesterase inhibitors” (LEO Pharma A/S, priority 2016, dated 2020)",
  "data": [
    {"molecular_target": "human PDE4D catalytic domain (Homo sapiens (Human), UniProt Q08499)", "sequence (Q08499 380-740)": "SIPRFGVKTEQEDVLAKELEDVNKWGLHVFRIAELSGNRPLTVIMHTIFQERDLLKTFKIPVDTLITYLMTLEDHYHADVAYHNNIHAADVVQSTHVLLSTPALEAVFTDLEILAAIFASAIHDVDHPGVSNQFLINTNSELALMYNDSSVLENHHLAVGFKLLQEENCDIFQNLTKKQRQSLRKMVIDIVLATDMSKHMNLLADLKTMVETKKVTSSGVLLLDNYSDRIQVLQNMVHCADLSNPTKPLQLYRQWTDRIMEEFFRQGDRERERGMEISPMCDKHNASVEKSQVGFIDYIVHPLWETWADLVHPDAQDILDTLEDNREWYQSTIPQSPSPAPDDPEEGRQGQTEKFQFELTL", "test": "PDE4 Assay (TR-FRET, FAM-cAMP cleavage)", "type": "biochemical", "conditions": "human PDE4D catalytic domain (UniProt Q08499 [S380-L740]); 50% inhibition of substrate cleavage; read-out: PDE4 IC50 range", "in_short": "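Readout is Tb-to-FAM time-resolved FRET after nanoparticle capture of AMP, the product of cleaving a cAMP/FAM-cAMP mixture by PDE4D catalytic domain (S380-L740) in the presence of titrated compound. Values are IC50 ranges in nM: concentration halving substrate cleavage relative to controls.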", "units": {"IC50": "µM"}, "values": [
      {"smiles": "CCn1nc(CCCOC(=O)c2ccc(C(N)=O)cc2)c2c1C(=O)NCC1(CCOCC1)C2", "note": "[Example 104, 3-(1-ethyl-8-oxo-spiro[6,7-dihydro-4H-pyrazolo[3,4-c]azepine-5,4′-tetrahydropyran]-3-yl)propyl 4-carbamoylbenzoate]", "IC50": "< 0.1"},
      {"smiles": "CCn1nc(CCCOC(=O)c2cc(OC)ccc2C(F)(F)F)c2c1C(=O)NCC1(CCOCC1)C2", "note": "[Example 80, 3-(1-ethyl-8-oxo-spiro[6,7-dihydro-4H-pyrazolo[3,4-c]azepine-5,4′-tetrahydro-pyran]-3-yl)propyl 5-methoxy-2-(trifluoromethyl)benzoate]", "IC50": "< 0.1"},
      {"smiles": "CCn1nc(CCCOC(=O)c2cc(Cl)ccc2F)c2c1C(=O)NCC1(CCOCC1)C2", "note": "[Example 51, 3-(1-ethyl-8-oxo-spiro[6,7-dihydro-4H-pyrazolo[3,4-c]azepine-5,4′-tetrahydropyran]-3-yl)propyl 5-chloro-2-fluoro-benzoate]", "IC50": "< 0.1"},
      {"smiles": "CCn1nc(CCCOC(=O)c2ccn(C)n2)c2c1C(=O)NCC1(CCOCC1)C2", "note": "[Example 237, 3-(1-ethyl-8-oxo-spiro[6,7-dihydro-4H-pyrazolo[3,4-c]azepine-5,4′-tetrahydropyran]-3-yl)propyl 1-methylpyrazole-3-carboxylate]", "IC50": "< 0.1"},
      {"smiles": "CCn1nc(CCCOC(=O)c2ccc(C(F)(F)F)cc2Cl)c2c1C(=O)NCC1(CCOCC1)C2", "note": "[Example 88, 3-(1-ethyl-8-oxo-spiro[6,7-dihydro-4H-pyrazolo[3,4-c]azepine-5,4′-tetrahydro-pyran]-3-yl)propyl 2-chloro-4-(trifluoromethyl)benzoate]", "IC50": "< 0.1"}
    ]}
  ]
}
